# Experimental data from paper PMC12152872, “Molecular glue binding behavior of phosphoantigens to alpaca butyrophilins” (The Journal of Biological Chemistry, 2025).
# Experiments:
# Type in all cases: binding
# [1] = biological target: T1, BTN3A1 and BTN2A1 B30.2 domains (Homo sapiens, UniProt O00481+Q7KYR7); assay: ITC, DMASPP titrated into mixture of BTN2A1 and BTN3A1 B30.[…] (first titration)
# T1 construct: BTN2A1 B30.2 in pET28a, Ni-NTA and DEAE; BTN3A1 B30.2 prepared as VpBTN3 B30.2; printed PDB ids are of BTN3A1 B30.2 only
# T1 sequence (O00481 328-513): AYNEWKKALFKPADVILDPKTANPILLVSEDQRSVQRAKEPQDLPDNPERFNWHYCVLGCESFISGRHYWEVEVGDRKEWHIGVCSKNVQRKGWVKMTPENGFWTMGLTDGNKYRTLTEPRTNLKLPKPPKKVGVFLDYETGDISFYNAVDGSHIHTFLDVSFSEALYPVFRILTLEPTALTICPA
# T1 sequence (Q7KYR7 310-506 limits assumed): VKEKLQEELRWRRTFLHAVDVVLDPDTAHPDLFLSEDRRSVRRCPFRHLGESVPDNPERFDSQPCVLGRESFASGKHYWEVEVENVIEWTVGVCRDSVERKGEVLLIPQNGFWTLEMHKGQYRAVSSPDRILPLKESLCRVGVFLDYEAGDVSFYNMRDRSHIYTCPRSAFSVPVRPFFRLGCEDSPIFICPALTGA
# [2] = biological target: T2, VpBTN2 B30.2 and full-length VpBTN3 B30.2 domain (Vicugna pacos, UniProt A0A345DF50+A0A6J0B3M7); assay: ITC, VpBTN2 B30.[…] titrated into preformed full-length VpBTN3 B30.2-DMASPP complex (second titration); details: 25 °C, 25 mM Hepes pH 7.5, 150 mM NaCl; molecular glue; protein-protein KD in presence of DMASPP
# T2 construct: gene Btn3; E. coli
# T2 sequence (A0A345DF50 323-557 limits assumed): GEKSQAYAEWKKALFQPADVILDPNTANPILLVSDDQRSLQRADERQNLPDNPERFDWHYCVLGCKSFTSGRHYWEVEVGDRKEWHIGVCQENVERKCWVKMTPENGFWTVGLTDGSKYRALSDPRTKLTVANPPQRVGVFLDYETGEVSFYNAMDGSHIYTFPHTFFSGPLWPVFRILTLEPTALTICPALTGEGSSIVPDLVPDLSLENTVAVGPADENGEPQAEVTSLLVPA
# T2 sequence (A0A6J0B3M7 311-535): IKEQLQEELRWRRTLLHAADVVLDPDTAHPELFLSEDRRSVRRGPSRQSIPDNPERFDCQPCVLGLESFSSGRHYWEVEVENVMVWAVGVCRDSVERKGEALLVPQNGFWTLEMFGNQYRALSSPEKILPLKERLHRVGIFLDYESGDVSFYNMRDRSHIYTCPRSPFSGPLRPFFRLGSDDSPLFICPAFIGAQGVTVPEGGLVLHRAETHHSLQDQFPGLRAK
# [3] = biological target: T3, VpBTN2 B30.2 and VpBTN3 B30.2 ΔC domains (Vicugna pacos, UniProt A0A345DF50+A0A6J0B3M7); assay: ITC, DMASPP titrated into mixture of VpBTN2 and VpBTN3 B30.[…] ΔC (first titration)
# T3 construct: gene Btn3; mixture of VpBTN2 B30.2 (residues 311-535) and VpBTN3 B30.2 ΔC (residues 323-513), mixed 2:1; E. coli BL21(DE3), His tags removed by TEV; VpBTN2 site R475, T508, V509
# T3 sequence (A0A345DF50 323-513, stated change not applied): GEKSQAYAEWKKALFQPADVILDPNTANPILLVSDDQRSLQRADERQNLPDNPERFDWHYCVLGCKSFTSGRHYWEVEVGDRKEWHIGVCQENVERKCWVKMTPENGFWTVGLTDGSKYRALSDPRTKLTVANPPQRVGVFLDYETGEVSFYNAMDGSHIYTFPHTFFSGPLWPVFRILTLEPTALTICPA
# T3 sequence (A0A6J0B3M7 311-535, stated change not applied): as the sequence (A0A6J0B3M7 311-535) above
# VpBTN3 B30.2 ΔC = biological target: T4, VpBTN3 B30.2 ΔC (Vicugna pacos, UniProt A0A345DF50); assay: ITC; crystal structure
# T4 construct: gene Btn3; intracellular B30.2 domain, residues 323-513, C-terminal loop truncated; pET32a, E. coli BL21(DE3); N-terminal His tag removed by TEV; pocket H381, H408, W421, K423, R442, R448, R499
# T4 sequence (A0A345DF50 323-513, stated change not applied): as the sequence (A0A345DF50 323-513, stated change not applied) above
# [4] = biological target: T1, BTN3A1 and BTN2A1 B30.2 domains; assay: ITC, second titration (BTN2A1 B30.[…] into BTN3A1 B30.2-DMASPP complex); details: 25 °C, 25 mM Hepes pH 7.5, 150 mM NaCl; molecular glue; protein-protein KD in presence of DMASPP
# [5] = biological target: T3, VpBTN2 B30.2 and VpBTN3 B30.2 ΔC domains; assay: ITC, VpBTN2 B30.[…] titrated into preformed VpBTN3 B30.[…] ΔC-DMASPP complex (second titration); details: 25 °C, 25 mM Hepes pH 7.5, 150 mM NaCl; molecular glue; protein-protein KD in presence of DMASPP
structure (smiles),measurement,setting,value
CC(C)=CCSP(=O)(O)OP(=O)(O)O [DMASPP],Kd,[1],8.19 µM
same,KD,[2],15.2 µM
same,Kd,[3],4.34 µM
same,Kd,VpBTN3 B30.2 ΔC,44.7 µM
same,KD,[4],18.8 µM
same,KD,[5],22.8 µM
